In brackets after ≈: the same amount, converted by molar mass.
Tests used:
[1] = Plasma concentration in rat at 5 mg/kg, po after 12 hrs; assay type: ADME, organism-based
[2] = AUC in rat at 5 mg/kg, po after 12 hrs; assay type: ADME, organism-based; design: route oral, time 12 hrs, dose 5 mg/kg; conditions: in vivo
[3] = Plasma concentration in rat at 5 mg/kg, po after 24 hrs; assay type: ADME, organism-based
[4] = Cmax in rat at 5 mg/kg, po; assay type: ADME, organism-based; design: route oral, dose 5 mg/kg; conditions: in vivo
[5] = AUC in rat at 5 mg/kg, po after 24 hrs; assay type: ADME, organism-based; design: route oral, dose 5 mg/kg, time 24 hrs; conditions: in vivo
Plasma kallikrein [6] = target: T1, Plasma kallikrein (Homo sapiens, UniProt P03952); experiment: Inhibition of purified human plasma kallikrein using H-D-Pro-Phe-Arg-pNA.2HCl as substrate measured after 3 mins by microplate reader analysis
T1 sequence (P03952 20-390 limits assumed): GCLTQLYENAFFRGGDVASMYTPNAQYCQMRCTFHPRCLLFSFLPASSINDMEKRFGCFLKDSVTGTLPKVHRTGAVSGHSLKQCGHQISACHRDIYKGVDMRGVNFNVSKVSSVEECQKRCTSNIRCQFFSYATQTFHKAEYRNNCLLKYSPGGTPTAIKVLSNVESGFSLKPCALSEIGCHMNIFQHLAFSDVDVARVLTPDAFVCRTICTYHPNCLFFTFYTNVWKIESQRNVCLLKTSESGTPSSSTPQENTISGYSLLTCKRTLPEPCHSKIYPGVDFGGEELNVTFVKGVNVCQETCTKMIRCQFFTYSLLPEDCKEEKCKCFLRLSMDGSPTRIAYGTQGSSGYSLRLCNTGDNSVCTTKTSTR
T1 sequence (P03952 391-638 limits assumed): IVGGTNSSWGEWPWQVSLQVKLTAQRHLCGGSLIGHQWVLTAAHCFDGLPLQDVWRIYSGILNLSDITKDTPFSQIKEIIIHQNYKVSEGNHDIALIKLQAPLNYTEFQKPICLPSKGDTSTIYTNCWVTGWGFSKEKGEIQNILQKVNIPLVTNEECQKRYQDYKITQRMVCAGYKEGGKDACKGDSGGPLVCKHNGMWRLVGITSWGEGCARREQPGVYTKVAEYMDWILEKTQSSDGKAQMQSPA

Plasma kallikrein [7] = target: T1, Plasma kallikrein; experiment: Inhibition of endogenous human plasma kallikrein using Z-Phe-Arg-AMC.HCl as substrate measured after 5 mins by microplate reader analysis
[8] = Solubility of compound at pH 4; assay type: physicochemical; conditions: buffer
Homo sapiens = species on record: Homo sapiens; experiment: Selectivity index, ratio of IC50 for human trypsin to IC50 for human plasma kallikrein
[9] = Solubility of compound at pH 7; assay type: physicochemical; conditions: buffer
Plasma kallikrein [10] = target: T1, Plasma kallikrein; experiment: Inhibition of purified human plasma kallikrein assessed as inhibition constant using H-D-Pro-Phe-Arg-pNA.2HCl as substrate measured after 3 mins by microplate reader analysis

SMILES	IC50 (Plasma kallikrein [6]) [µM]	IC50 (Plasma kallikrein [7]) [µM]	also measured
NCc1cccc(-n2nc(C(F)(F)F)cc2C(=O)Nc2cc(C(NCC3CC3)c3ccccc3)ccc2F)c1 (stereo in doubt; 25)			concentration at 12 h [1]: 31 ng/mL; AUC at 12 h [2]: 493 ng·h/mL; concentration at 24 h [3]: 29 ng/mL; Cmax [4]: 51 ng/mL; AUC at 24 h [5]: 852 ng·h/mL
NCc1cccc(-n2nc(C(F)(F)F)cc2C(=O)Nc2ccc(-c3ccccc3)cc2)c1	2.9		
NCc1cccc(-n2nc(C(F)(F)F)cc2C(=O)O)c1	15.4		
C=Cc1cc(C(=O)Nc2ccc(C(=N)N)cc2)c(-c2ccc(C(=O)NCC3CC3)nc2C(=O)O)cc1OC [AVORALSTAT]			solubility [8]: 47 mg/mL (≈ 91.5 mM); Ratio IC50 (Homo sapiens): 8192; solubility [9]: 1.09 mg/mL (≈ 2.12 mM); Ki (Plasma kallikrein [10]): 0.00026 µM
NCc1cccc(-n2nc(C(F)(F)F)cc2C(=O)Nc2cccc(C(OCC3CC3)c3ccccc3)c2F)c1 (stereo unspecified)	0.037	> 1	
NCc1cccc(-n2nc(C(F)(F)F)cc2C(=O)Nc2cc(F)cc(C(OCC3CC3)c3ccccc3)c2)c1 (stereo unspecified)	0.1	> 1	
NCc1cccc(-n2nc(C(F)(F)F)cc2C(=O)Nc2ccc(-c3ccc(C(N)=O)cc3)cc2F)c1	0.395		
NCc1cccc(-n2nc(C(F)(F)F)cc2C(=O)Nc2ccc(-c3ccccc3)cc2F)c1	1.02		
NCc1cccc(-n2nc(C(F)(F)F)cc2C(=O)Nc2ccc(F)c(C(OCC3CC3)c3ccccc3)c2)c1 (stereo unspecified)	0.708	> 1	
NCc1cccc(-n2nc(C(F)(F)F)cc2C(=O)Nc2cccc(C(OCC3CC3)c3ccccc3)c2)c1 (stereo unspecified)	0.0376	0.3	
NCc1cccc(-n2ccc(C(F)(F)F)n2)c1	1000		

Continued, in another order:

IC50 (Plasma kallikrein [6]) [µM]	IC50 (Plasma kallikrein [7]) [µM]	SMILES	also measured
0.231		COC(c1ccccc1)c1ccc(F)c(NC(=O)c2cc(C(F)(F)F)nn2-c2cccc(CN)c2)c1 (stereo unspecified)	
0.0072	0.019	N#Cc1ccc(C(NCC2CC2)c2ccc(F)c(NC(=O)c3cc(C(F)(F)F)nn3-c3cccc(CN)c3)c2)cc1 (stereo unspecified)	
0.134	1.28	CCOC(c1ccccc1)c1ccc(F)c(NC(=O)c2cc(C(F)(F)F)nn2-c2cccc(CN)c2)c1 (stereo unspecified)	
0.01	0.01	NCc1cccc(-n2nc(C(F)(F)F)cc2C(=O)Nc2cc(C(NCC3CC3)c3cccnc3)ccc2F)c1 (stereo unspecified)	AUC at 12 h [2]: 128 ng·h/mL; Cmax [4]: 58 ng/mL

Source: ChEMBL document CHEMBL4842368, “Berotralstat (BCX7353): Structure-Guided Design of a Potent, Selective, and Oral Plasma Kallikrein Inhibitor to Prevent Attacks of Hereditary Angioedema (HAE)” (J Med Chem, 2021)
